Reference: patent US12129255B2, “Pyrido [2,3-d]pyrimidine derivatives as inhibitors of human immunodeficiency virus replication” (VIIV HEALTHCARE UK (No. 5) LIMITED, priority 2019, dated 2024)
Read-outs that look alike come from different tables or passages of the source.

Key:
recombinant NL4-3 virus = experiment: Antiviral activity toward recombinant NL4-3 Renilla luciferase virus in MT-2 cells; assay type: cell-based, HIV
Description: MT-2 cells, 293T cells and the proviral DNA clone of NL4-3 virus were obtained from the NIH AIDS Research and Reference Reagent Program. MT-2 cells were propagated in RPMI 1640 media supplemented with 10% heat inactivated fetal bovine serum (FBS), […]. The 293T cells were propagated in DMEM media supplemented with 10% heat inactivated FBS, […]. A recombinant NL4-3 proviral clone, in which a section of the nef gene was replaced with the Renilla luciferase gene, was used to make the reference virus used in these studies. The recombinant virus was prepared through transfection of the recombinant NL4-3 proviral clone into 293T cells using Transit-293 Transfection Reagent from Mirus Bio LLC (Madison, WI). Supernatant was harvested after 2-3 days and the amount of virus present was titered in MT-2 cells using luciferase enzyme activity as a marker by measuring luciferase enzyme activity. Luciferase was quantitated using the EnduRen Live Cell Substrate from Promega (Madison, WI). Antiviral activities of compounds toward the recombinant virus were quantified by measuring luciferase activity in MT-2 cells infected for 4-5 days with the recombinant virus in the presence of serial dilutions of the compound. […]

[1] = Metabolism in liver microsomes (rat); assay type: in vitro ADME; settings: pH 7.4, 1 μM compound, 1 mg/mL microsomes, NADPH, read-out: Rat liver microsome T1/2
Description: (§1) Liver microsomes from human, rat dog and monkey were thawed and diluted to a final concentration of 1 mg/mL in 100 mM potassium phosphate buffer (pH 7.4). Test compounds and controls were prepared at 100× final concentration of 1 μM in 1:1 acetonitrile:water (v/v) and aliquoted into microsomal mixture. The mixture was preincubated at 37° C. in a shaking water bath for 10 minutes. The incubations were performed in duplicate. Three controls were included in the incubations; warfarin, phenacetin, and verapamil. After the preincubation, the reaction was initiated with NADPH at a final concentration of 1 mM. At 0, 5, 15, 30, 45 and 60 minutes, 25 μL of sample was removed and quenched with 300 μL of acetonitrile containing internal standard (Telmisartan). The samples were vortexed for 5 minutes at 1200 rpm and then centrifuged at 4000 rpm for 10 min. A 100 μL aliquot of supernatant was diluted three-fold with water and injected on an Exion LC 4500 Triple Quad LC-MS/MS system. Results were reported as a percentage of parent remaining and was calculated from peak area ratios of test compound remaining after at each time point and compared to time zero incubation.

[2] = Metabolism in liver microsomes (monkey); assay type: in vitro ADME
Description: as §1

[3] = Metabolism in human hepatocytes; assay type: in vitro ADME
Description: Cryopreserved hepatocytes in suspension from human, monkey, dog, rat and mouse were thawed and diluted in pre-warmed William's Medium E (pH 7.4). Aliquots of the hepatocyte suspension were added to test compound working solutions prepared in pre-warmed William's Medium E (pH 7.4) to achieve final concentrations of 0.5 μM in 0.5×10^6 cells per milliliter and ≤0.25% DMSO. These samples were incubated at 37° C. with 5% carbon dioxide and shaking at 200 rpm. The incubations were performed in singlet. […] Following completion of the experiment, samples were analyzed by LC-MS/MS. […] This percentage is calculated by dividing the peak area ratio of test compound following incubation (tx) by the peak area ratio of test compound at time-zero (t0) just prior to incubation. • The elimination rate constant (k, min^−1) is calculated using nonlinear regression fitting with the following equation: Ct=C0×e^(−k×t) • where: • C0 is the initial concentration represented as the peak area ratio (test compound peak area/internal standard peak area); • Ct is the concentration at t represented as the area ratio (test compound peak area/internal standard peak area); • e is the base of the natural logarithm • t is the time (min); • k is the elimination rate constant (min^−1). • The half-life (t1/2, min) is calculated using the following equation: […]

**Q.** With `Cn1nc(NS(C)(=O)=O)c2c(Cl)ccc(-n3c([C@H](Cc4cc(F)cc(F)c4)NC(=O)Cn4nc(C(F)F)c5c4C(F)(F)[C@@H]4C[C@H]54)nc4nc(OCCC(F)(F)F)ccc4c3=O)c21` (atropisomer, axis not shown; (P)) [Example 1, N—((S)-1-((3P)-3-(4-chloro-1-methyl-3-(methylsulfonamido)-1H-indazol-7-yl)-4-oxo-7-(3,3,3-trifluoropropoxy)-3,4-dihydropyrido[2,3-d]pyrimidin-2-yl)-2-(3,5-difluorophenyl)ethyl)-2-((3bS,4aR)-3-(difluoromethyl)-5,5-difluoro-3b,4,4a,5-tetrahydro-1H-cyclopropa[3,4]cyclopenta[1,2-c]pyrazol-1-yl)acetamide] as the compound, how does the EC50 (recombinant NL4-3 virus; Human immunodeficiency virus 1, NL43, MT2, read-out: EC50 (anti-HIV virology assay, revised average)) read?
**A.** 25 ± 8 pM

**Q.** What about the EC50 (recombinant NL4-3 virus; Human immunodeficiency virus 1, NL43, MT2, read-out: EC50 when initially tested) of the same compound?
**A.** 34 pM

**Q.** And the half-life at 1 μM [1]?
**A.** > 2 h

**Q.** What about the “stability in monkey liver microsomes relative to Example 60.2” value ([2]; Example 1 versus Example 60.2) of the same compound?
**A.** at least two times more stable

**Q.** And the half-life at 1 μM ([2]; monkey, liver microsomes, pH 7.4, 1 μM compound, 1 mg/mL microsomes, NADPH, read-out: Monkey liver microsome T1/2)?
**A.** > 2 h

**Q.** And the “intrinsic clearance in human hepatocytes” value ([3]; 0.5 μM, 0.5×10^6 cells per milliliter)?
**A.** 0.312 mL/min/g liver

**Q.** What about the half-life at 0.5 μM ([3]; human, cryopreserved hepatocytes in suspension, pH 7.4, 0.5×10^6 cells per milliliter) of the same compound?
**A.** > 8 h
